Results from PubChem BioAssay AID1645867 (Buhrlage Lab, Dana-Farber Cancer Institute and Novartis …, 2021).
The source made the active and inactive calls. The rule behind the calls is not given here.

molecular target: Ubiquitin carboxyl-terminal hydrolase isozyme L1 (Homo sapiens) (UniProt P09936); assay: UCH-L1 deubiquitylase inhibitors, biochemical concentration-response, hit retest (AID 1645867); conditions: recombinant UCHL1 deubiquitinase activity assay
Sequence (P09936 whole entry, looked up): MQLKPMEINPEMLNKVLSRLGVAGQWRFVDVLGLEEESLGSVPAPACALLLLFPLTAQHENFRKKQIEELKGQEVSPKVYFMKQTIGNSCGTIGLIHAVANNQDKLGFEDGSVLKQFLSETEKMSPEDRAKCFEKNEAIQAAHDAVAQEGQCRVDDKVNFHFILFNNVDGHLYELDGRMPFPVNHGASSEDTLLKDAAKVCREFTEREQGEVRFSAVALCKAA

Row | SMILES | IC50
1 | CC1O[C@@H](c2ccc3c(c2O)C(=O)C2=C(C3=O)[C@@]3(O)C(=O)C(O)[C@](C)(O)C[C@@]3(O)C=C2)CC[C@@H]1OC(=O)/C=C/C=C/C=C/[C@@H]1O[C@@](C)(C(=O)O)O[C@H]1C (some centres undefined) | 4.57 µM
2 | O=C(CSc1nc2cc(C(F)(F)F)ccc2s1)NCC(=O)c1ccccc1 | > 25 µM (inactive)
3 | Cc1ccc(C2SCC(=O)Nc3c2c(=O)[nH]n3C2CCCCC2)cc1 (centres undefined) | > 25 µM (inactive)
4 | O=C(Cn1nnc2ccccc21)Nc1nc(-c2ccc3c(c2)CCN3C(=O)c2ccccc2F)cs1 | > 25 µM (inactive)
5 | CC(Oc1ccc(F)cc1)c1nnc(C2(c3ccc(F)cc3)CCOCC2)o1 (centres undefined) | > 25 µM (inactive)
6 | Fc1ccc(Nc2nc(CN3CCOCC3)nc3sc4c(c23)CCC4)cc1Cl | > 25 µM (inactive)
7 | Cc1nn(-c2ccc(Cl)cc2)c2[nH]c(=O)c(CNc3ccc4c(c3)OCCO4)cc12 | > 25 µM (inactive)
8 | COc1cc(Cl)c(NC(=O)c2cc(-c3ccccn3)n[nH]2)c(OC)c1 | > 25 µM (inactive)
9 | O=[N+]([O-])c1ccc(S(=O)(=O)CC2CSc3nc4ccccc4n32)cc1 (centres undefined) | > 25 µM (inactive)
10 | CC(C)(C)n1ncc2c(=O)n(CC(=O)N3CCCc4ccccc43)cnc21 | > 25 µM (inactive)
11 | O=S1(=O)CCN(CC2CCCO2)c2c(Oc3ccccc3)nc(F)c(Cl)c21 (centres undefined) | > 25 µM (inactive)
12 | O=C(c1cncs1)N1CCc2[nH]nc(Nc3ccccc3)c2C1 | > 25 µM (inactive)
13 | O=C1CC(c2ccc(F)cc2)CC2=C1C(c1cccc([N+](=O)[O-])c1)Nc1ccccc1N2 (centres undefined) | > 25 µM (inactive)
14 | C=Cc1cc(OC)c2c(c1)c(=O)oc1c2cc(OC)c2c(O)ccc([C@H]3OC(C)[C@@H](OC(C)=O)C(N(C)C)C3O)c21 (some centres undefined) | > 25 µM (inactive)
15 | O=C(Cn1cccc(-c2nc(-c3ccccc3)no2)c1=O)Nc1ccccc1F | > 25 µM (inactive)
16 | COc1ccc(OC)c(C2=NO[C@]3(C(=O)Nc4ccccc43)[C@H]2C(=O)c2ccc(OC)c(OC)c2)c1 | > 25 µM (inactive)
17 | Cc1nn(-c2ccc(F)cc2)c(C)c1S(=O)(=O)N1CCN(c2ccccn2)CC1 | > 25 µM (inactive)
18 | CCN(CC)Cc1ccc(-c2nnc(-c3cnc4onc(C)c4c3)o2)o1 | > 25 µM (inactive)
19 | Cc1c(Cl)cccc1NC(=O)Cn1cc(C(=O)C2CC2)c2ccccc21 | > 25 µM (inactive)
20 | CCOc1ccccc1C1CC(=O)Nc2ccc3ccccc3c21 (centres undefined) | > 25 µM (inactive)
21 | N#Cc1ccc(COC(=O)C(O)(c2ccccc2)c2ccccc2)cc1 | > 25 µM (inactive)
22 | Cc1nnc(-c2ccc3ccn(CC(=O)N4CCN(c5ccccc5)CC4)c3c2)o1 | > 25 µM (inactive)
23 | Cc1nn(-c2ccccc2)c(C)c1S(=O)(=O)N1CCN(c2ccccn2)CC1 | > 25 µM (inactive)

Row | SMILES | IC50
24 | N#Cc1cccc(C(=O)Nc2cccc(Oc3ccccc3)c2)c1 | > 25 µM (inactive)
25 | O=C1CC(c2nc3ccccc3n2CCOc2ccccc2)CN1Cc1ccccc1 (centres undefined) | > 25 µM (inactive)
26 | O=C(NCc1ccco1)c1ccc(Cn2c(SCc3ccccc3)nc3ccncc32)cc1 | > 25 µM (inactive)
27 | Cc1ccc(N(CC(=O)N2CCCc3ccccc32)S(=O)(=O)c2ccc3c(c2)OCCO3)cc1 | > 25 µM (inactive)
28 | O=C(CCCn1c(=O)c2ccccc2n(CC(=O)NCc2ccccc2Cl)c1=O)NCc1ccc2c(c1)OCO2 | > 25 µM (inactive)
29 | C(=C\c1nc(-c2cccc(-c3ccn[nH]3)c2)no1)/c1ccco1 | > 25 µM (inactive)
30 | O=C(COc1ccc(N2CC(C(=O)NCc3ccc4c(c3)OCO4)CC2=O)cc1)Nc1ccc(F)cc1 (centres undefined) | > 25 µM (inactive)
31 | Cc1nn(-c2ccccc2)c2c1C1(C(=O)Nc3ccccc31)N1C(=N2)Sc2ccccc21 (centres undefined) | > 25 µM (inactive)
32 | COc1ccc(-c2cc3nc([C@H](C)NC(=O)Cc4ccccc4C)nn3cn2)cc1 | > 25 µM (inactive)
33 | Cc1cccc(NC(=O)Cn2cnc(-c3noc(-c4ccccc4)n3)c2)c1C | > 25 µM (inactive)
34 | COC(=O)c1ccc2c(=O)n(CCCCCC(=O)NCCc3ccc(S(N)(=O)=O)cc3)c(=O)[nH]c2c1 | > 25 µM (inactive)
35 | O=C(O)c1ccc(Cl)c(NC(=O)C2COc3ccccc3O2)c1 (centres undefined) | > 25 µM (inactive)
36 | O=c1c2cc(Br)ccc2[nH]c(=S)n1Cc1cccnc1 | > 25 µM (inactive)
37 | Cc1cc(Nc2ncc(Cl)cc2Cl)n(-c2ccccc2)n1 | > 25 µM (inactive)
38 | C/C=C/C=C/[C@@H]1Cc2cc(O)cc(O)c2O1 | 10.9 µM
39 | O=C(CCSc1nnnn1-c1ccccc1)Nc1cc(C(F)(F)F)ccc1Cl | > 25 µM (inactive)
40 | COc1ccc(-c2nc(CNC(=O)c3ccccc3C)cs2)cc1 | > 25 µM (inactive)
41 | CC(=O)NS(=O)(=O)c1ccc(NC(=O)/C=C/c2cn(-c3ccccc3)nc2-c2ccccc2)cc1 | > 25 µM (inactive)
42 | CS(=O)(=O)n1nc(NCc2ccc(F)cc2)nc1NCc1ccc(F)cc1 | > 25 µM (inactive)
43 | CCCn1c(=O)c(-c2ccc(C(=O)NCc3ccc(OC)cc3)cc2)nc2cccnc21 | > 25 µM (inactive)
44 | Cc1ccc2[nH]c3c(=O)n(Cc4ccc(N(C)C)cc4)cnc3c2c1 | > 25 µM (inactive)
45 | COc1ccc(OC)c2c(C)cc(N3CC(C)CC(C)C3)nc12 (centres undefined) | > 25 µM (inactive)
46 | Cc1nc(S(=O)(=O)NC[C@@]23CCC[C@H]2N(C)C(=O)CC3)cn1C | > 25 µM (inactive)

Row | SMILES | IC50
47 | CCOc1ccc2c(c1)c(=O)c(C(=O)c1ccccc1)cn2CC(=O)Nc1ccccc1 | > 25 µM (inactive)
48 | O=C(O)c1c(CNC2CCCCCC2)c2ccccc2n1Cc1ccc(F)cc1 | > 25 µM (inactive)
49 | Cc1ccc(C2CN3C(=O)CN(C4CC4)C(=O)[C@]3(C)c3[nH]c4ccccc4c32)cc1 (some centres undefined) | > 25 µM (inactive)
50 | Cc1ccc(S(=O)(=O)NCc2ccc(C(=O)NCCc3ccc(S(N)(=O)=O)cc3)cc2)cc1 | > 25 µM (inactive)
51 | Cc1ccc(Cn2nc(C)c(C(=O)N3CCCc4cc(C)ccc43)c2C)cc1 | > 25 µM (inactive)
52 | O=C(Cn1c(=O)n(Cc2ccccc2)c(=O)c2ncccc21)NCc1ccccc1Cl | > 25 µM (inactive)
53 | CCC1OC(O)(C(C)C(O)C(C)C2OC(=O)/C(C)=C/C(C)=CC(C)C(O)C(C)C/C(C)=C/C=C/C2OC)CC(OC(=O)/C=C/C(=O)NC2=C(O)CCC2=O)C1C (centres undefined) | > 25 µM (inactive)
54 | FC(F)(F)c1ccc(Nc2nnnc3ccccc23)cc1 | > 25 µM (inactive)
55 | CN(C)CCN1C(=O)c2cc3occc3n2CC1(C)C(=O)NC1CCCCCC1 (centres undefined) | > 25 µM (inactive)
56 | COC(=O)Nc1cccn(Cc2c(Cl)cccc2Cl)c1=O | > 25 µM (inactive)
57 | Cc1ccccc1CCNCc1c(C(=O)O)n(Cc2ccc(Cl)cc2)c2ccccc12 | > 25 µM (inactive)
58 | Cc1c(Cl)ccc2sc(N3CCN(C(=O)c4ccn(C)n4)CC3)nc12 | > 25 µM (inactive)
59 | COCCNC(=O)c1cc(-c2ccn(C3CCCC3)n2)n2ccccc12 | > 25 µM (inactive)
60 | c1ccc(-n2nnc(-c3noc(-c4ccc[nH]4)n3)c2-c2ccncc2)cc1 | > 25 µM (inactive)
61 | N#C/C(=C\c1ccc(OCc2cccc(C(=O)O)c2)cc1)c1ccc(F)cc1 | > 25 µM (inactive)
62 | Cc1ccc(NC(=O)c2nnn(CC(=O)Nc3cccc(C)c3C)c2N)cc1C | > 25 µM (inactive)
63 | O=C1[C@H]2Cc3c([nH]c4ccccc34)CN2C(=O)CN1Cc1ccc(F)cc1 | > 25 µM (inactive)
64 | O=C(c1cccc2ncccc12)N1CCN(c2ccnc3cc(Cl)ccc23)CC1 | > 25 µM (inactive)
65 | Cc1ccc(NC(=O)c2cc(-c3ccccn3)nc3c(Cl)cccc23)nc1 | > 25 µM (inactive)
66 | CCc1ccc(NC(=O)C2CCN(c3nc4nc[nH]c(=O)c4s3)CC2)cc1 | > 25 µM (inactive)
67 | Cn1c(=O)c2ncnnc2n(C)c1=O | 16.3 µM
68 | COc1ccc(CNC(=O)c2ccc3c(=O)nc4c(-c5cccc(C)c5)n[nH]n4c3c2)cc1 | > 25 µM (inactive)
69 | Cc1oc2cc3oc(=O)c(CCC(=O)N4CC[C@@]5(O)CCCC[C@H]5C4)c(C)c3cc2c1C | > 25 µM (inactive)

Row | SMILES | IC50
70 | CSc1ncccc1C(=O)NC1(O)C(=O)c2ccccc2C1=O | 18.3 µM
71 | Cc1cc(C)cc(NC(=O)C2C3C=CC4(O3)C2C(=O)N(C2CCCCC2)C4C(=O)NC2CCCCC2)c1 (centres undefined) | > 25 µM (inactive)
72 | O=C(Nc1ccc(NC(=O)c2ccccc2O)cc1)Nc1ccc(OCc2ccccc2)cc1 | > 25 µM (inactive)
73 | CN(C)[C@@H]1C(=O)C(C(N)=O)=C(O)[C@@]2(O)C(=O)C3=C(O)c4c(O)cccc4[C@@](C)(O)[C@H]3C[C@@H]12 | > 25 µM (inactive)
74 | Nc1c(-c2nc(-c3ccccc3Cl)no2)nnn1-c1ccc(Cl)cc1 | > 25 µM (inactive)
75 | CCC(C)Nc1ncnc2c1CN(C1CCCNCC1)C(=O)CN2C (centres undefined) | > 25 µM (inactive)
76 | Cc1oncc1C(=O)N1CC[C@H]2CO[C@H](CN3CCOCC3)[C@H]2C1 | > 25 µM (inactive)
77 | CC(C)Cc1ccc(-c2cc(-c3ccc(C(F)(F)F)cc3)c(C#N)c(=O)[nH]2)cc1 | > 25 µM (inactive)
78 | Cn1c(=O)c(N2CCOCC2)nc2c(OCc3ccccc3)nc(N)nc21 | > 25 µM (inactive)
79 | O=C(NCCc1nc2ccccc2n1Cc1ccccc1F)c1ccco1 | > 25 µM (inactive)
80 | Cc1nn(-c2ccc(F)cc2)c(C)c1S(=O)(=O)N1CCN(c2ncccn2)CC1 | > 25 µM (inactive)
81 | Cc1ccc(C)c(NC(=O)Cn2cc(C(=O)C3CC3)c3ccccc32)c1 | > 25 µM (inactive)
82 | COc1ccccc1-c1nc(-c2cn(-c3ccc(F)cc3)nn2)no1 | > 25 µM (inactive)
83 | COc1cc(OC)c(NC(=O)c2cc(-c3ccccn3)n[nH]2)cc1Cl | > 25 µM (inactive)
84 | CCN1C(=O)c2ccccc2C(=O)[C@@]2(C)CN(C(=O)c3ccccc3)C[C@@H]12 | > 25 µM (inactive)
85 | O=C(CSc1nnc(-c2cccnc2)n1-c1ccccc1)c1cccc([N+](=O)[O-])c1 | > 25 µM (inactive)
86 | O=C(CCc1nc2sc3c(c2c(=O)[nH]1)CCCCC3)Nc1ccc(F)cc1F | > 25 µM (inactive)
87 | COc1ccccc1OCCSc1nnc(-c2ccc3c(c2)OCCCO3)n1C | > 25 µM (inactive)
88 | CCn1cc2c(n1)c(=O)n(Cc1ccccc1)c(=O)n2CC(=O)Nc1ccc(C)cc1C | > 25 µM (inactive)
89 | CCc1ccc(-n2c(C)cc(/C=C3\C(=N)N4N=CSC4=NC3=O)c2C)cc1 | > 25 µM (inactive)
